Data on 36 compounds can be found in patent publication US20250177396A1, “POLO-LIKE KINASE 4 (PLK4) INHIBITORS, PHARMACEUTICAL COMPOSITIONS, METHODS OF PREPARATION AND USES THEREOF” (Repare Therapeutics Inc., priority 2022, published 2025).

In general, IC50 refers to the point on the concentration scale where inhibition reaches its midpoint.

SMILES strings stand for the structures.

In this test the target is T1, PLK4 (Homo sapiens, UniProt O00444).
T1 construct: expressed in transfected cells; host or cells: HEK293 T cells (ATCC CRL-3216)
T1 sequence (O00444 1-970): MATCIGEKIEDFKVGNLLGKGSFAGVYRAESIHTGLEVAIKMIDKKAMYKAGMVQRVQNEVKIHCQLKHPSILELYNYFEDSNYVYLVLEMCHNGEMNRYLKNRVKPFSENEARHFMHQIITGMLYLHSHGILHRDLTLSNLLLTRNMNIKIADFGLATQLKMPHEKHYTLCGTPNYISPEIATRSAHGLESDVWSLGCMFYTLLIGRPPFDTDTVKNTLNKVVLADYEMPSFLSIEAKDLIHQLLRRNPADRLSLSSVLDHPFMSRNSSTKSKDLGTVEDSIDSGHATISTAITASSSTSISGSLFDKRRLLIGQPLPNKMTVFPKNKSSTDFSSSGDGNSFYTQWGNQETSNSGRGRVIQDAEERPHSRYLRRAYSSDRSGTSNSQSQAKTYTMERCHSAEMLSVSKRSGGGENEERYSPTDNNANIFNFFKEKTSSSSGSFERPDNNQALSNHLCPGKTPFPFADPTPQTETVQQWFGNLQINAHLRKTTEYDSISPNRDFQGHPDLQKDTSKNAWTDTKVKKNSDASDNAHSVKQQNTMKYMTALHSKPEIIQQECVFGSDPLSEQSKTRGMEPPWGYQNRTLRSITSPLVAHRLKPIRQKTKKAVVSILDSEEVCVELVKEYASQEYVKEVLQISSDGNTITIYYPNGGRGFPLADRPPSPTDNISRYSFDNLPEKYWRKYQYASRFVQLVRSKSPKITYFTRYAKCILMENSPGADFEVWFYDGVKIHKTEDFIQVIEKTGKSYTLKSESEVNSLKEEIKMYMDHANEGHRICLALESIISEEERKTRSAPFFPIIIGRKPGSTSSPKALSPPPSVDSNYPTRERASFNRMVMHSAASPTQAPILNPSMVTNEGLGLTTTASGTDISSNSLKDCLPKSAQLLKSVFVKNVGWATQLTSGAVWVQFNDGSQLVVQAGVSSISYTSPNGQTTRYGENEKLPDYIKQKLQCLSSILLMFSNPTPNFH
Briefly: PLK4 NanoBRET target engagement assay. The format is binding. Conditions: HEK293 T cells transfected with PLK4 NanoLuc fusion vector; K-5 tracer; 2 hrs incubation. Here is the method: To determine the affinity of Compounds described herein in the PLK4 NanoBRET target engagement assay, HEK293 T cells (ATCC Product Number CRL-3216) are first transfected with the PLK4 NanoLuc fusion vector DNA and Transfection carrier DNA using the Fugene HD Transfection reagent in Opti-MEM No Phenol Red buffer. After an overnight incubation in a 37° C./5% CO2 incubator, the transfected HEK293 T cells are trypsinized, counted, and resuspended in Opti-MEM No Phenol Red buffer at a concentration of 200000 cells/mL. White 96-well plates are then plated with 85 μL of cells (17000 cells/well) to which 5 μL of the 20×K-5 tracer solution diluted in tracer dilution buffer is added. Finally, 10 μL of the 10× compounds are added and the plates and then incubated in a 37° C./5% CO2 incubator for 2 hrs. After the incubation, a 50 uL 3× solution of the substrate/inhibitor mix is added to the cells. The plate is then transferred in the Envision plate reader where the Acceptor emission (610 nm) and the Donor emission (450 nm) are measured.
The IC50 of compounds is determined as follows: • 1. The ratio between the Acceptor emission (610 nm)/Donor emission (450 nm) is calculated. • 2. This ratio is then multiplied by 1000 to obtain the mBRET units (multiplying by 1000 is an arbitrary step that simply makes the data easier to interpret; it has no impact on the data set itself) • 3. The mBRET units are then used in Scigilian Analyze software (https://analyze.scigilian.io) to determine the IC50 value using a 4-parameter fit analysis.
A general note: In BRET a luciferase serves as donor, and the signal depends on an acceptor being close.
For `COc1c(Nc2cc(C)[nH]n2)nc(Oc2ccc(NS(C)(=O)=O)cc2)nc1-c1cnn(C)c1` [Compound 32], the IC50 came to 2800 nM.
`Cc1cc(Nc2nc(N(C)c3cc(F)c(S(C)(=O)=O)cc3F)nc(-c3cc4n(n3)CCOC4)c2C2CC2)n[nH]1` [Compound 243]: the IC50 stood at 16 nM.
`COc1c(-c2cnn(C)c2)cc(Sc2ccc(S(C)(=O)=O)cc2F)nc1Nc1cc(C)[nH]n1` [Compound 21, 6-((2-fluoro-4-(methylsulfonyl)phenyl)thio)-3-methoxy-N-(5-methyl-1H-pyrazol-3-yl)-4-(1-methyl-1H-pyrazol-4-yl)pyridin-2-amine] had a half-maximal inhibitory concentration (IC50) of 53 nM.
As for `Cc1csc(-c2nc(N(C)c3ccc(S(C)(=O)=O)cc3F)nc(Nc3cc(C)[nH]n3)c2C2CC2)n1` [Compound 45], the IC50 amounted to 140 nM.
Consider `Cc1cc(Nc2nc(N(C)c3cc(F)c(S(C)(=O)=O)cc3F)nc(-c3cn(C)cn3)c2C2CC2)n[nH]1` [Compound 125, 5-cyclopropyl-N^2-(2,5-difluoro-4-(methylsulfonyl)phenyl)-N^2-methyl-6-(1-methyl-1H-imidazol-4-yl)-N^4-(5-methyl-1H-pyrazol-3-yl)pyrimidine-2,4-diamine], for which half-maximal inhibition (IC50) was put at 7 nM.
Consider `Cc1cc(Nc2nc(N(C)c3c(F)cc(S(C)(=O)=O)cc3F)nc(-c3cnn(C)c3C(O)C(F)(F)F)c2C2CC2)n[nH]1` (stereo not drawn) [Compound 305], for which it took 16 nM to reach half-maximal inhibition (IC50). This IC50 lies about 2.3-fold higher than the previous one.
The compound `COc1c(Nc2cc(C)[nH]n2)nc(Sc2ccc(S(C)(=O)=O)cc2F)c(N)c1-c1cnn(C)c1` [Compound 102] registered an IC50 of 840 nM.
Next, `Cc1cc(Nc2nc(N(C)c3c(F)cc(S(C)(=O)=O)cc3Cl)nc(-c3cnn(C)c3)c2C2CC2)n[nH]1` [Compound 118]: more than 5000 nM.
As to `Cc1cc(Nc2nc(N(C)c3c(F)cc(S(C)(=O)=O)cc3F)nc(-c3cn(C)nc3C(=O)N(C)C)c2C2CC2)n[nH]1` [Compound 252], the IC50 amounted to 48 nM.
Consider `COc1c(Nc2cc(C)[nH]n2)nc(N(C)c2ccc(S(C)(=O)=O)cc2F)nc1-c1cnn(C)c1` [Compound 2, N^2-(2-fluoro-4-(methylsulfonyl)phenyl)-5-methoxy-N^2-methyl-N^4-(5-methyl-1H-pyrazol-3-yl)-6-(1-methyl-1H-pyrazol-4-yl)pyrimidine-2,4-diamine], for which half-maximal inhibition (IC50) required 53 nM.
Compound `COc1c(Nc2cc(C)[nH]n2)nc(N(C)c2ccc(-c3nnc(C)o3)cc2)nc1-c1cnn(C)c1` [Compound 72] registered an IC50 of 820 nM. Compared with the last compound, the IC50 is about 15-fold higher.
The compound `Cc1cc(Nc2nc(N(CCO)c3c(F)cc(S(C)(=O)=O)cc3F)nc(-c3cn(C)cn3)c2C2CC2)n[nH]1` [Compound 238] had an IC50 of 34 nM.
Turning to `Cc1cc(Nc2nc(N(C)c3c(F)cc(S(C)(=O)=O)cc3F)nc(-c3cnn(C)c3C(=O)O)c2C2CC2)n[nH]1` [Compound 289], 660 nM corresponded to half-maximal inhibition (IC50).
Compound `Cc1cc(Nc2nc(N(C)c3ccc(S(=O)(=O)C(C)(C)C)cc3)nc(-c3cnn(C)c3)c2C2CC2)n[nH]1` [Compound 82] registered a half-maximal inhibitory concentration (IC50) of 65 nM.
`Cc1cc(Nc2nc(N(C)c3c(F)cc(S(C)(=O)=O)cc3F)nc(-c3cn(C4CC4)c(C)n3)c2C2CC2)n[nH]1` [Compound 241] showed an IC50 of 4 nM.
`COc1cc(F)c(N(C)c2nc(Nc3cc(C)[nH]n3)c(C3CC3)c(-c3cn(C)cn3)n2)c(F)c1` [Compound 338]: the IC50 came to 77 nM.
Regarding `COCCn1cc(-c2nc(N(C)c3ccc(S(C)(=O)=O)cc3F)nc(Nc3cc(C)[nH]n3)c2C2CC2)c(C)n1` [Compound 219], the 50% inhibitory concentration (IC50) turned out to be 18 nM.
`Cc1cc(Nc2nc(N(C)c3c(F)cc(S(C)(=O)=O)cc3F)nc(-c3cnn(CC(=O)N(C)C)c3)c2C2CC2)n[nH]1` [Compound 170] registered a concentration for half-maximal inhibition (IC50) of 11 nM. This IC50 is about 1.6-fold lower than that of the compound before.
Turning to `Cc1cc(Nc2nc(N(C)c3ccc(S(C)(=O)=O)cc3F)nc(-c3cnn(C4CN(S(C)(=O)=O)C4)c3)c2C2CC2)n[nH]1` [Compound 62], it took 28 nM to reach half-maximal inhibition (IC50).
Take `Cc1cc(Nc2nc(N(C)c3cc(F)c(S(C)(=O)=O)cc3F)nc(-c3ccn(C)n3)c2C2CC2)n[nH]1` [Compound 133]: the midpoint of inhibition, the IC50, lay at 18 nM.
Regarding `Cc1cc(Nc2nc(N(C)c3c(F)cc(S(C)(=O)=O)cc3F)nc(-c3ncn(C)n3)c2C2CC2)n[nH]1` [Compound 215], the IC50 worked out at 69 nM.
In turn, `COc1c(Nc2cc(C)[nH]n2)nc(N(C)c2cccc(S(C)(=O)=O)c2)nc1-c1cnn(C)c1` [Compound 78] came in with an IC50 of 4500 nM.
For the compound `COc1c(Nc2cc(C)[nH]n2)nc(N(C)c2ccc(S(=O)(=O)CC(C)C)cc2)nc1-c1cnn(C)c1` [Compound 55], the half-inhibitory concentration (IC50) came out at 320 nM.
`COc1c(Nc2cc(C)[nH]n2)nc(Sc2ccc(S(C)(=O)=O)cc2F)c(C)c1-c1cnn(C)c1` [Compound 22, 6-((2-fluoro-4-(methylsulfonyl)phenyl)thio)-3-methoxy-5-methyl-N-(5-methyl-1H-pyrazol-3-yl)-4-(1-methyl-1H-pyrazol-4-yl)pyridin-2-amine] gave an IC50 of 96 nM.
As to `Cc1cc(Nc2nc(N(C)c3ccc(S(C)(=O)=O)cc3F)cc(-c3cnn(C)c3)c2C2CC2)n[nH]1` [Compound 20, 3-cyclopropyl-N^6-(2-fluoro-4-(methylsulfonyl)phenyl)-N^6-methyl-N^2-(5-methyl-1H-pyrazol-3-yl)-4-(1-methyl-1H-pyrazol-4-yl)pyridine-2,6-diamine], the IC50 amounted to 69 nM.
`Cc1cc(Nc2nc(N(C)c3c(F)cc(S(C)(=O)=O)cc3F)nc(C(N)=O)c2C2CC2)n[nH]1` [Compound 179]: 260 nM corresponded to half-maximal inhibition (IC50). This IC50 is about 3.8-fold higher than that of the compound before.
In the case of `CN(c1nc(Nc2cc(C(F)(F)F)[nH]n2)c(C2CC2)c(-c2cnn(C)c2)n1)c1c(F)cc(S(C)(=O)=O)cc1F` [Compound 278], the IC50 stood at 60 nM.
For the compound `Cc1cc(Nc2nc(N(C)c3cc(F)c(S(C)(=O)=O)cc3F)nc(-c3cnn([C@H]4CC[C@H](O)CC4)c3)c2C2CC2)n[nH]1` [Compound 223], the IC50 was determined as 9 nM. This IC50 lies about 6.7-fold lower than the previous one.
`Cc1cc(Nc2nc(N(C)c3c(F)cc(S(C)(=O)=O)cc3F)nc(-c3cnn(CCS(C)(=O)=O)c3C)c2C2CC2)n[nH]1` [Compound 227] returned an IC50 of 5 nM.
With `Cc1cc(Nc2nc(N(C)c3c(F)cc(S(C)(=O)=O)cc3F)nc(N3Cc4cnn(C)c4C3)c2C2CC2)n[nH]1` [Compound 271], the IC50 was 60 nM.
`Cc1cc(Nc2nc(N(C)c3c(F)cc(S(C)(=O)=O)cc3F)nc(-c3cnn4ccncc34)c2C2CC2)n[nH]1` [Compound 288] registered an IC50 of 22 nM.
As for `Cc1cc(Nc2nc(N(C)c3ccc(S(C)(=O)=O)cc3F)nc(-c3cn(C)cn3)c2C2CC2)n[nH]1` [Compound 17, 5-cyclopropyl-N^2-(2-fluoro-4-(methylsulfonyl)phenyl)-N^2-methyl-6-(1-methyl-1H-imidazol-4-yl)-N^4-(5-methyl-1H-pyrazol-3-yl)pyrimidine-2,4-diamine], it took 20 nM to reach half-maximal inhibition (IC50). The IC50 values of the last two compounds are within 1.5-fold of each other.
On to `Cc1cc(Nc2nc(N(C)c3c(F)cc(S(C)(=O)=O)cc3F)nc(-c3cn(CCF)c(C)n3)c2C2CC2)n[nH]1` [Compound 229], for which half-maximal inhibition (IC50) was put at 3 nM.
`CCN(c1nc(Nc2cc(C)[nH]n2)c(OC)c(-c2cnn(C)c2)n1)c1ccc(S(C)(=O)=O)cc1F` [Compound 3, N^2-ethyl-N^2-(2-fluoro-4-(methylsulfonyl)phenyl)-5-methoxy-N^4-(5-methyl-1H-pyrazol-3-yl)-6-(1-methyl-1H-pyrazol-4-yl)pyrimidine-2,4-diamine] returned an IC50 of 68 nM.
As for `COCc1c(-c2nc(N(C)c3c(F)cc(S(C)(=O)=O)cc3F)nc(Nc3cc(C)[nH]n3)c2C2CC2)cnn1C` [Compound 249], the midpoint of inhibition, the IC50, lay at 2 nM.
Next, `Cc1cc(Nc2nc(N(C)c3c(F)cc(S(C)(=O)=O)cc3F)nc(N3CC(n4ccnc4)C3)c2C2CC2)n[nH]1` [Compound 236]: 87 nM.
